Source: patent US10738028B2, “Spiro three-membered ring, spiro five-membered ring peptide deformylase inhibitor and use thereof in antibacteria and anti-tumor” (priority 2016, dated 2020)

What was measured:
[1] = test system: Enterococcus faecalis (EFA); experiment: MIC, two-fold agar dilution (CLSI), clinical isolates; assay type: cell-based
Method in brief: (§1)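 Following the American Clinical and Laboratory Standards Institute procedure, agar two-fold dilution served to determine minimum inhibitory concentrations.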

[2] = test system: Escherichia coli (including ESBLs, non-ESBLs); experiment: as above; assay type: cell-based
Method in brief: as §1

[3] = test system: methicillin-resistant Staphylococcus aureus (MRSA); experiment: as above; assay type: cell-based
Method in brief: as §1

[4] = test system: methicillin-resistant Staphylococcus epidermidis (MRSE); experiment: as above; assay type: cell-based
Method in brief: as §1

[5] = test system: methicillin-sensitive Staphylococcus aureus (MSSA); experiment: as above; assay type: cell-based
Method in brief: as §1

[6] = test system: methicillin-sensitive Staphylococcus epidermidis (MSSE); experiment: as above; assay type: cell-based
Method in brief: as §1

[7] = test system: HCT-116 colorectal cancer cell line; experiment: CCK-8 proliferation inhibition; assay type: cell-based; details: concentration of 30 μM, 72 hours, CCK-8; for inhibition at 30 µM: Homo sapiens, HCT-116, 72 h, read-out: HCT116 inhibition rate/%
Method in brief: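 Viability read-out: 1:10 diluted CCK-8 after 72 h compound exposure at 37 °C, 5% CO2. Cells (2000/well, McCoy's 5A plus 10% newborn bovine serum) pre-cultured overnight; vehicle control 1‰ DMSO.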

[8] = test system: methemoglobin in blood samples of three healthy volunteers; experiment: Toxicity on methemoglobin in vitro (whole blood with S9 and NADPH, absorbance at 630 nm); assay type: cell-based, human; details: 500 μM compound; whole blood + S9 + NADPH; 5 hours at 37° C.
Method in brief: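 Fresh EDTA whole blood from three healthy volunteers incubated 5 h at 37 °C with human liver S9 (2 mg/mL), NADPH-generating system and compound at 500 μM final. Lysed in 1% Triton X-100; MetHb % from 630 nm absorbance relative to ferricyanide-oxidized blood.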

the test strains = experiment: MIC against the test strains (strain not given); assay type: cell-based; details: read-out: MIC (azole amide bioisosteres)
Text: 1. The invention adopts the two-fold agar dilution method recommended by the operating procedure of antimicrobial susceptibility testing set by American Clinical and Laboratory Standards Institute (CLSI) to determine the Minimum Inhibitory Concentration (MIC) of the test samples against the tested strains.

[9] = test system: Enterococcus faecium (EFM); experiment: MIC, two-fold agar dilution (CLSI), clinical isolates; assay type: cell-based
Method in brief: as §1

[10] = test system: Moraxella catarrhalis (BCA); experiment: as above; assay type: cell-based
Method in brief: as §1

[11] = test system: Streptococcus pneoumoniae (SPN); experiment: as above; assay type: cell-based
Method in brief: as §1

[12] = test system: A549 lung cancer cell line; experiment: CCK-8 proliferation inhibition; assay type: cell-based; details: Homo sapiens, A549, 72 h, concentration of 30 μM
Method in brief: (§2)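 Plating at 2000 cells/well, then incubation overnight at 37° C. Next, a range of compound concentrations for 72 hours (control 1‰ DMSO). Finally, medium decanted and CCK-8 diluted 1:10 added.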

[13] = test system: BEL-7402 liver cancer cell line; experiment: CCK-8 proliferation inhibition; assay type: cell-based; details: concentration of 30 μM
Method in brief: as §2

[14] = test system: MGC-803 gastric cancer cell line; experiment: CCK-8 proliferation inhibition; assay type: cell-based; details: concentration of 30 μM
Method in brief: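 Growth inhibition measured by CCK-8 read-out after 72 h continuous compound treatment, 1‰ DMSO vehicle as control. Cells plated 2000/well the night before at 37 °C, 5% CO2; medium was 1640 for Jurkat and MGC-803, F12 for PC3, DMEM high glucose for MCF-7, each with 10% newborn bovine serum.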

CCCC[C@H](CN(O)C=O)C(=O)N1CC2(CC2)C[C@H]1c1nnc(-c2ccccn2)o1 [Example 12, N-hydroxy-N—((R)-2-((S)-6-(5-(pyridin-2-yl)-1,3,4-oxadiazol-2-yl)-5-azaspiro[2.4]heptane-5-carbonyl)hexyl)carboxamide]
0.5 to 2 mg/L: MIC (the test strains)
4 mg/L: MIC (anti-bacterial activity) ([1]; strain EFA 14-1) | MIC (anti-bacterial activity) ([3]; strain MRSA 14-1) | MIC (anti-bacterial activity) ([3]; strain MRSA 14-2) | MIC (anti-bacterial activity) ([3]; strain MRSA 14-4) | MIC (anti-bacterial activity) ([4]; strain MRSE 14-4) | MIC (anti-bacterial activity) ([5]; strain MSSA 14-1)
13%: inhibition at 30 µM [7]
1 mg/L: MIC (anti-bacterial activity) ([3]; strain printed MRSA 14-1 (second line of that name, r23, before MRSE 14-2)) | MIC (anti-bacterial activity) ([6]; strain MSSE 14-1) | MIC (anti-bacterial activity) ([6]; strain MSSE 14-2) | MIC (anti-bacterial activity) ([6]; strain MSSE 14-4)
8 mg/L: MIC (anti-bacterial activity) ([1]; strain EFA 14-2) | MIC (anti-bacterial activity) ([1]; strain EFA 14-3) | MIC (anti-bacterial activity) ([1]; strain EFA 14-5)
2 mg/L: MIC (anti-bacterial activity) ([3]; strain MRSA 14-5) | MIC (anti-bacterial activity) ([5]; strain MSSA 14-2) | MIC (anti-bacterial activity) ([5]; strain MSSA 14-3) | MIC (anti-bacterial activity) ([5]; strain MSSA 14-4)
1.22 ± 0.02%: MetHb % (n = 3) [8]
0.5 mg/L: MIC (anti-bacterial activity) ([2]; strain ECO+ 14-1) | MIC (anti-bacterial activity) ([4]; strain MRSE 14-2) | MIC (anti-bacterial activity) ([4]; strain MRSE 14-3) | MIC (anti-bacterial activity) ([6]; strain MSSE 14-3)
64 mg/L: MIC (anti-bacterial activity) ([2]; strain ECO+ 14-2) | MIC (anti-bacterial activity) ([2]; strain ECO− 14-2)
128 mg/L: MIC (anti-bacterial activity) ([2]; strain ECO− 14-1)

O=C(C[C@@H](CC1CCCC1)C(=O)N1CC2(CC2)C[C@H]1c1nc2ccccc2[nH]1)NO [Example 75, (R)-4-((S)-6-(1H-benzimidazol-2-yl)-5-azaspiro[2.4]heptane-5-yl)-3-(cyclopentylmethyl)-N-hydroxy-4-oxobutanamide]
8 mg/L: Anti-bacterial activity (MIC) ([10]; strain BCA 14-4) | Anti-bacterial activity (MIC) ([10]; strain BCA 14-6)
> 32 mg/L: Anti-bacterial activity (MIC) ([1]; strain EFA 15-1) | Anti-bacterial activity (MIC) ([1]; strain EFA 15-2) | Anti-bacterial activity (MIC) ([1]; strain EFA 15-3) | Anti-bacterial activity (MIC) ([1]; strain EFA 15-4) | Anti-bacterial activity (MIC) ([1]; strain EFA 15-5) | Anti-bacterial activity (MIC) ([1]; strain EFA 15-6) | Anti-bacterial activity (MIC) ([1]; strain EFA 15-9) | Anti-bacterial activity (MIC) ([9]; strain EFM 15-1) | Anti-bacterial activity (MIC) ([9]; strain EFM 15-2) | Anti-bacterial activity (MIC) ([9]; strain EFM 15-3)
> 50%: inhibition at 30 µM [7] | inhibition at 30 µM ([13]; Homo sapiens, Bel-7402, 72 h) | inhibition at 30 µM ([14]; Homo sapiens, MGC-803, 72 h)
2 mg/L: Anti-bacterial activity (MIC) ([9]; strain EFM 15-4) | Anti-bacterial activity (MIC) ([9]; strain EFM 15-5) | Anti-bacterial activity (MIC) ([9]; strain EFM 15-6) | Anti-bacterial activity (MIC) ([10]; strain BCA 14-5) | Anti-bacterial activity (MIC) ([10]; strain BCA 14-10) | Anti-bacterial activity (MIC), strain MRSA 15-2 ([3]; clinical isolate MRSA 15-2) | Anti-bacterial activity (MIC), strain MRSE 15-2 ([4]; clinical isolate MRSE 15-2) | Anti-bacterial activity (MIC), strain MSSA 15-3 ([5]; clinical isolate MSSA 15-3)
4 mg/L: Anti-bacterial activity (MIC) ([10]; strain BCA 14-1) | Anti-bacterial activity (MIC) ([10]; strain BCA 14-7) | Anti-bacterial activity (MIC) ([10]; strain BCA 14-8) | Anti-bacterial activity (MIC), strain MRSE 15-3 ([4]; clinical isolate MRSE 15-3) | Anti-bacterial activity (MIC), strain MRSE 15-7 ([4]; clinical isolate MRSE 15-7)
59%: HCT116 inhibition rate/% ([7]; 30 µM)
70%: Inhibition of proliferation, Liver cancer BEL-7402 ([13]; 72 hours, 30 µM)
1 mg/L: Anti-bacterial activity (MIC) ([11]; strain SPN 16-2) | Anti-bacterial activity (MIC), strain MRSA 15-1 ([3]; clinical isolate MRSA 15-1) | Anti-bacterial activity (MIC), strain MRSA 15-3 ([3]; clinical isolate MRSA 15-3) | Anti-bacterial activity (MIC), strain MRSA 15-4 ([3]; clinical isolate MRSA 15-4) | Anti-bacterial activity (MIC), strain MRSE 15-1 ([4]; clinical isolate MRSE 15-1) | Anti-bacterial activity (MIC), strain MSSE 15-3 ([6]; clinical isolate MSSE 15-3) | Anti-bacterial activity (MIC), strain MSSE 15-4 ([6]; clinical isolate MSSE 15-4) | Anti-bacterial activity (MIC), strain MSSE 15-5 ([6]; clinical isolate MSSE 15-5)
16 mg/L: Anti-bacterial activity (MIC), strain ECO+ 15-1 ([2]; clinical isolate ECO+ 15-1) | Anti-bacterial activity (MIC), strain ECO+ 15-4 ([2]; clinical isolate ECO+ 15-4) | Anti-bacterial activity (MIC), strain ECO− 15-1 ([2]; clinical isolate ECO− 15-1) | Anti-bacterial activity (MIC), strain MSSA 15-6 ([5]; clinical isolate MSSA 15-6)
32 mg/L: Anti-bacterial activity (MIC), strain ECO+ 15-2 ([2]; clinical isolate ECO+ 15-2) | Anti-bacterial activity (MIC), strain ECO+ 15-3 ([2]; clinical isolate ECO+ 15-3) | Anti-bacterial activity (MIC), strain ECO− 15-2 ([2]; clinical isolate ECO− 15-2) | Anti-bacterial activity (MIC), strain ECO− 15-3 ([2]; clinical isolate ECO− 15-3) | Anti-bacterial activity (MIC), strain ECO− 15-4 ([2]; clinical isolate ECO− 15-4)
0.5 to 2 mg/L: MIC (the test strains)
0.5 mg/L: Anti-bacterial activity (MIC) ([11]; strain SPN 16-4) | Anti-bacterial activity (MIC), strain MSSA 15-4 ([5]; clinical isolate MSSA 15-4) | Anti-bacterial activity (MIC), strain MSSA 15-5 ([5]; clinical isolate MSSA 15-5) | Anti-bacterial activity (MIC), strain MSSE 15-6 ([6]; clinical isolate MSSE 15-6)
51%: Inhibition of proliferation, Gastric cancer MGC-803 ([14]; 72 hours, 30 µM)
45%: inhibition at 30 µM [12]
